Where two headings read alike, the source gives them in different places.
Assays:
MCL-1 = MCL-1 (Homo sapiens, UniProt Q07820); experiment: Protein-protein interaction assay MCL-1/Noxa BH3 peptide (MCL-1 assay), TR-FRET; format: binding; settings: MBP-MCL-1 / Noxa BH3-derived peptide, median
How it was run: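 TR-FRET, 665/622 nm emission ratio (excitation 330–350 nm), measured MCL-1/Noxa complex formation. 1 nM MBP-MCL-1, 50 mM Tris/HCl pH 7, 0.1% BGG, 2 mM DTT. Incubation 1 h at 22 °C, then overnight at 4 °C. IC50 by 4-parameter regression, normalized to DMSO (0%) and no-MCL-1 (100%) controls.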

SUDHL5 [1] = experiment: Induction of caspase-3/7 activity (Caspase-Glo 3/7), SUDHL5; format: cell-based; settings: caspase-3/7 induction, SUDHL5 cells, 3 h treatment, median
How it was run: (§1)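 DLBCL cells treated with compounds for 3 h at 37 °C, then caspase-3/7 activity read by Caspase-Glo 3/7 luminescence. Medium-only background subtracted; EC50 fitted with C0 fixed at 1 and top set to the reference compound's maximal induction.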

SUDHL10 [2] = experiment: Induction of caspase-3/7 activity (Caspase-Glo 3/7), SUDHL10; format: cell-based; settings: caspase-3/7 induction, SUDHL10 cells, 3 h treatment, median
How it was run: as §1

SUDHL10 [3] = experiment: Anti-proliferative effect (CellTiter-Glo, 72 h), SUDHL10; format: cell-based; settings: SUDHL10 cells, antiproliferation, 72 h incubation, median, read-out: Antiproli SUDHL10 [M] (median)
How it was run: (§2)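 A time zero plate, read with CellTiter-Glo shortly after seeding, served as baseline; compound-treated plates were incubated 72 h at 37 °C and then read identically by luminescence.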

OPM2 = experiment: Anti-proliferative effect (CellTiter-Glo, 72 h), OPM2; format: cell-based; settings: OPM2 cells, median, read-out: IC50 antiproliferation assay OPM2 [M] (median)
Experimental: Assessment of the Anti-Proliferative Effect of Compounds in Different Cell Lines
The impact of compounds on the proliferation of different cell lines was assessed using the CellTiter-Glo® Luminescent Cell Viability reagent from Promega (G7573). Of note, SUDHL10 and SUDHL5 (DLBCL), NCI-H929 (Multiple Myeloma), A2780 (ovarian carcinoma) as well as MV-4-11(AML) cells are sensitive to MCL-1 inhibition.
In parallel, cells were plated in a reference (day 0) plate for time zero determination.
Rim wells were excluded. The cells were incubated for 72 h hours in a humidified incubator at 37° C. The day 0 plate was measured by adding 30 μl/well of CTG solution (CellTiter-Glo® Luminescent Cell Viability reagent, Promega G7573) to time zero wells in the reference plate followed by a 10 minutes incubation and luminescence reading at 0.1 ms, using the PHERAstar FS microplate reader (BMG Labtech).
After 72 h incubation, the treated plates were measured in the same way as the day 0 plate mentioned above.

A2780 = experiment: Anti-proliferative effect (CellTiter-Glo, 72 h), A2780; format: cell-based; settings: A2780 cells, median, read-out: IC50 antiproliferation assay A2780 [M] (median)
How it was run: as §2

SUDHL5 [4] = experiment: Induction of cytotoxicity (CellTiter-Glo, 5 h), SUDHL5
SUDHL10 [5] = experiment: Induction of cytotoxicity (CellTiter-Glo, 5 h), SUDHL10
[6] = Homo sapiens, SU-DHL-5, 5 h, read-out: Cytotox SUDHL5 [M] (median), SUDHL5 cells, cytotoxicity induction, CellTiter-Glo, 5 h incubation, median
[7] = Homo sapiens, SU-DHL10, 5 h, read-out: Cytotox SUDHL10 [M] (median), SUDHL10 cells, cytotoxicity induction, CellTiter-Glo, 5 h incubation, median
[8] = read-out: Cytotox SUDHL5 [M] (median), SUDHL5 cells, cytotoxicity induction, CellTiter-Glo, 5 h incubation, median
[9] = read-out: Cytotox SUDHL10 [M] (median), SUDHL10 cells, cytotoxicity induction, CellTiter-Glo, 5 h incubation, median

Sequence of MCL-1 (Q07820 whole entry): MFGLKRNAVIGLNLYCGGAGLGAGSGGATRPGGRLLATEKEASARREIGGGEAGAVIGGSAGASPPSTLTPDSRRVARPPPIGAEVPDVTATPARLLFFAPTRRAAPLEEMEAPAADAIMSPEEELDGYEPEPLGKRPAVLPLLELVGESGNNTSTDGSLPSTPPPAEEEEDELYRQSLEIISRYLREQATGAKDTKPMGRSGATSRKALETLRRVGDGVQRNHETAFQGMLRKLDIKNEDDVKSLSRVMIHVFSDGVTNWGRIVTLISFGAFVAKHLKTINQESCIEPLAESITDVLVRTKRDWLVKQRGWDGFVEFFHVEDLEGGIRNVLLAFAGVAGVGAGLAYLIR

| SMILES | IC50 (MCL-1) | EC50 (SUDHL5 [1]; Homo sapiens, SU-DHL-5, 3 h) | EC50 (SUDHL10 [2]; Homo sapiens, SU-DHL10, 3 h) | IC50 (SUDHL10 [3]; Homo sapiens, SU-DHL10, 72 h) | IC50 (A2780; Homo sapiens, A2780, 72 h) | EC50 (SUDHL5 [1]) | EC50 (SUDHL10 [2]) | IC50 (SUDHL10 [3]) | IC50 (A2780) | IC50 (OPM2; Homo sapiens, OPM-2, 72 h) | IC50 (SUDHL5 [4]; [6]) | IC50 (SUDHL10 [5]; [7]) | IC50 (OPM2) | IC50 (SUDHL5 [4]; [8]) | IC50 (SUDHL10 [5]; [9]) |
| --- | --- | --- | --- | --- | --- | --- | --- | --- | --- | --- | --- | --- | --- | --- | --- |
| Cc1ccc2cc1-c1cccc3c(CCCOc4cccc5ccccc45)c(C(=O)O)n(c13)CCOCCO2 (racemic) [Example 117, (rac)-13-Methyl-1-[3-(naphthalen-1-yloxy)propyl]-4,5,7,8-tetrahydro-10,14-(metheno)[1,4,7]dioxazacyclotetradecino[9,8,7-hi]indole-2-carboxylic Acid] | 0.633 µM | > 33 µM | > 33 µM | > 3.3e-05 M | > 3.3e-05 M |  |  |  |  | > 3.3e-05 M | > 3.3e-05 M | > 3.3e-05 M |  |  |  |
| COCCn1nc2c(c1CN1CCOCC1)-c1cccc3c(CCCOc4cccc5ccccc45)c(C(=O)O)n(c13)CCCN(C)C2 (single isomer, unassigned; enantiomer 2) [Example 058, 10-(2-methoxyethyl)-7-methyl-11-(morpholin-4-ylmethyl)-1-[3-(naphthalen-1-yloxy)propyl]-4,5,6,7,8,10-hexahydropyrazolo[3′,4′:7,8][1,5]diazecino[9,10,1-hi]indole-2-carboxylic Acid (Enantiomer 2)] | 0.116 µM |  |  |  |  | > 33 µM | > 33 µM | 2.05e-05 M | > 3.3e-05 M |  |  |  | > 3.3e-05 M | > 3.3e-05 M | > 3.3e-05 M |
| Cc1cc(OCCCc2c(C(=O)O)n3c4c(cccc24)-c2c(C)nn(C)c2COCCC3)cc(C)c1Cl (racemic) [Example 013, (rac)-1-[3-(4-chloro-3,5-dimethylphenoxy)propyl]-9,11-dimethyl-5,6,8,9-tetrahydro-4H-pyrazolo[4′,3′:8,9][1,5]oxazecino[7,6,5-hi]indole-2-carboxylic Acid] | 0.0345 µM | > 33 µM | > 33 µM | 4.83e-06 M | 3.27e-05 M |  |  |  |  | > 3.3e-05 M | > 3.3e-05 M | > 3.3e-05 M |  |  |  |
| Cc1nn(C)c2c1-c1cccc3c(CCCOc4ccccc4)c(C(=O)O)n(c13)CCCCOC2 (racemic) [Example 016, (rac)-1,3-dimethyl-7-(3-phenoxypropyl)-1,10,11,12,13,15-hexahydropyrazolo[4′,3′:9,10][1,6]oxazacycloundecino[8,7,6,6-hi]indole-8-carboxylic Acid] | 0.495 µM | > 33 µM | > 33 µM | > 3.3e-05 M | > 3.3e-05 M |  |  |  |  | > 3.3e-05 M | > 3.3e-05 M | > 3.3e-05 M |  |  |  |
| CCOCc1nn(C)c2c1-c1cccc3c(CCCOc4cccc5c4CCCC5)c(C(=O)O)n(c13)CCCCOC2 (single isomer, unassigned; enantiomer 2) [Example 172, 3-(ethoxymethyl)-1-methyl-7-[3-(5,6,7,8-tetrahydronaphthalen-1-yloxy)propyl]-1,10,11,12,13,15-hexahydropyrazolo[4′,3′:9,10][1,6]oxazacycloundecino[8,7,6-hi]indole-8-carboxylic Acid (Enantiomer 2)] | 0.144 µM |  |  |  |  | > 33 µM | > 33 µM | 1.53e-05 M | > 3.3e-05 M |  |  |  | > 3.3e-05 M | > 3.3e-05 M | > 3.3e-05 M |
| Cc1c2c(nn1C)CN(C)CCCCn1c(C(=O)O)c(CCCOc3cccc4ccccc34)c3cccc-2c31 (racemic) [Example 067, (rac)-2,3,14-trimethyl-7-[3-(naphthalen-1-yloxy)propyl]-10,11,12,13,14,15-hexahydro-2H-pyrazolo[3′,4′:8,9][1,6]diazacycloundecino[10,11,1-hi]indole-8-carboxylic Acid] | 0.0221 µM | > 33 µM | > 33 µM | 5.38e-06 M | 2.72e-06 M |  |  |  |  | 1.48e-05 M | > 3.3e-05 M | > 3.3e-05 M |  |  |  |
| CN1CCCn2c(C(=O)O)c(CCCOc3cccc4ccccc34)c3cccc(c32)-c2c(CNCC(F)(F)F)nn(C)c2C1 (racemic) [Example 129, (rac)-7,9-dimethyl-1-[3-(naphthalen-1-yloxy)propyl]-11-{[(2,2,2-trifluoroethyl)amino]methyl}-4,5,6,7,8,9-hexahydropyrazolo[3′,4′:7,8][1,5]diazecino[9,10,1-hi]indole-2-carboxylic Acid (Racemate)] | 0.0222 µM | > 33 µM | > 33 µM | 6.99e-06 M | 1.7e-05 M |  |  |  |  | > 3.3e-05 M | > 3.3e-05 M | > 3.3e-05 M |  |  |  |
| COCCn1nc2c(c1CN1CCOCC1)-c1cccc3c(CCCOc4cccc5ccccc45)c(C(=O)O)n(c13)CCCN(C)C2 (racemic) [Example 056, (rac)-10-(2-methoxyethyl)-7-methyl-11-(morpholin-4-ylmethyl)-1-[3-(naphthalen-1-yloxy)propyl]-4,5,6,7,8,10-hexahydropyrazolo[3′,4′:7,8][1,5]diazecino[9,10,1-hi]indole-2-carboxylic Acid] | 0.049 µM | > 33 µM | > 33 µM | 2e-05 M | > 3.3e-05 M |  |  |  |  | > 3.3e-05 M | > 3.3e-05 M | > 3.3e-05 M |  |  |  |
| Cn1ncc2c1COCCCCn1c(C(=O)O)c(CCCOc3cccc4ccccc34)c3cccc-2c31 (racemic) [Example 128, (rac)-1-methyl-7-[3-(naphthalen-1-yloxy)propyl]-1,10,11,12,13,15-hexahydropyrazolo[4′,3′:9,10][1,6]oxazacycloundecino[8,7,6-hi]indole-8-carboxylic Acid] | 0.0403 µM | > 33 µM | > 33 µM | 1.29e-05 M | 3.04e-05 M |  |  |  |  | > 3.3e-05 M | > 3.3e-05 M | > 3.3e-05 M |  |  |  |

Now from value to molecule, other results behind:

| IC50 (MCL-1) | EC50 (SUDHL5 [1]; Homo sapiens, SU-DHL-5, 3 h) | EC50 (SUDHL10 [2]; Homo sapiens, SU-DHL10, 3 h) | IC50 (SUDHL10 [3]; Homo sapiens, SU-DHL10, 72 h) | IC50 (A2780; Homo sapiens, A2780, 72 h) | EC50 (SUDHL5 [1]) | EC50 (SUDHL10 [2]) | IC50 (SUDHL10 [3]) | IC50 (A2780) | SMILES | IC50 (OPM2; Homo sapiens, OPM-2, 72 h) | IC50 (SUDHL5 [4]; [6]) | IC50 (SUDHL10 [5]; [7]) | IC50 (OPM2) | IC50 (SUDHL5 [4]; [8]) | IC50 (SUDHL10 [5]; [9]) |
| --- | --- | --- | --- | --- | --- | --- | --- | --- | --- | --- | --- | --- | --- | --- | --- |
| 0.00466 µM | > 33 µM | > 33 µM | > 3.3e-05 M | > 3.3e-05 M |  |  |  |  | Cn1nc(COc2ccc(N3CCN(CC(=O)O)CC3)cc2)c2c1COCCCCn1c(C(=O)O)c(CCCOc3cccc4ccccc34)c3cccc-2c31 (racemic) [Example 1-120, (rac)-3-({4-[4-(Carboxymethy)piperazin-1-yl]phenoxy}methyl)-1-methyl-7-[3-(naphthalen-1-yloxy)propyl]-1,10,11,12,13,15-hexahydropyrazolo[4′,3′:9,10][1,6]oxazacycloundecino[8,7,6-hi]indole-8-carboxylic Acid] | > 3.3e-05 M | > 3.3e-05 M | > 3.3e-05 M |  |  |  |
| 6.88 µM | > 33 µM | > 33 µM | > 3.3e-05 M | 2.8e-05 M |  |  |  |  | COc1cc2cc(c1)-c1cccc3c(CCCOc4cccc5ccccc45)c(C(=O)O)n(c13)CCCCCO2 (racemic) [Example 1-122, (rac)-12-Methoxy-1-[3-(naphthalen-1-yloxy)propyl]-5,6,7,8-tetrahydro-4H-10,14-(metheno)[1,7]oxazacyclotetradecino[9,8,7-hi]indole-2-carboxylic Acid] | 2.77e-05 M | > 3.3e-05 M | > 3.3e-05 M |  |  |  |
| 2.31 µM | > 33 µM | > 33 µM | > 3.3e-05 M | > 3.3e-05 M |  |  |  |  | COc1cc2cc(c1)-c1cccc3c(CCCOc4cccc5ccccc45)c(C(=O)O)n(c13)CCOCCO2 (racemic) [Example 1-119, (rac)-12-Methoxy-1-[3-(1-naphthyloxy)propyl]-4,5,7,8-tetrahydro-10,14-(metheno)[1,4,7]dioxazacyclotetradecino[9,8,7-hi]indole-2-carboxylic Acid] | > 3.3e-05 M | > 3.3e-05 M | > 3.3e-05 M |  |  |  |

Source: US10981932B2, “Macrocyclic indole derivatives” (Bayer Aktiengesellschaft, priority 2016, dated 2021)
